Values of other authors in patent publication US5583105A, “Oral pharmaceutical preparation” (Biogal Gyogyszerguar Rt, priority 1994, dated 1996).

Details: in water

- concentration of aqueous solution formed: 6.5%
Compound: CCOC(=O)CC(O)(CC(=O)OCC)C(=O)OCC [triethylcitrate, triethyl-citrate]
